In ChEMBL document CHEMBL5550100, “Discovery of LHF418 as a new potent SOS1 PROTAC degrader” (Bioorg Med Chem, 2024):
Active and inactive are the calls of the source. The rule behind the calls is not given here.

Tests used:
[1] = molecular target: T1, Protein cereblon/Son of sevenless homolog 1 (Homo sapiens, UniProt Q07889+Q96SW2); test: PROTAC activity at CRBN/SOS1 in human A549 cells assessed as protein degradation incubated for 24 hrs by immunoblot analysis; assay type: cell-based
[2] = molecular target: T1, Protein cereblon/Son of sevenless homolog 1; test: PROTAC activity at CRBN/SOS1 in MLN-4924-pretreated human A549 cells assessed as protein degradation at 1 uM incubated for 24 hrs by immunoblot analysis; assay type: cell-based
[3] = molecular target: T1, Protein cereblon/Son of sevenless homolog 1; test: PROTAC activity at CRBN/SOS1 in MG-132-pretreated human A549 cells assessed as protein degradation at 1 uM incubated for 24 hrs by immunoblot analysis; assay type: cell-based
[4] = molecular target: Protein cereblon/Son of sevenless homolog 1 (Homo sapiens, UniProt Q07889+Q96SW2, G12C); test: PROTAC activity at CRBN/SOS1 in human MIA PaCa-2 cells harboring KRAS G12C mutant assessed as protein degradation by immunoblot analysis; assay type: cell-based
[5] = molecular target: Protein cereblon/Son of sevenless homolog 1 (Homo sapiens, UniProt Q07889+Q96SW2, G12D); test: PROTAC activity at CRBN/SOS1 in human HPAF-II cells harboring KRAS G12D mutant assessed as protein degradation by immunoblot analysis; assay type: cell-based
MIA PaCa-2 = test: Inhibition of colony formation in human MIA PaCa-2 cells upto 30 uM incubated for 14 days by crystal violet staining based analysis; assay type: functional, cell-based; settings: time 14.0 day
A549 [6] = test: Effect on GSPT1 in human A549 cells upto 10000 nM incubated for 24 hrs by immunoblot analysis; assay type: functional, cell-based
[7] = molecular target: T1, Protein cereblon/Son of sevenless homolog 1; test: PROTAC activity at CRBN/SOS1 in human A549 cells assessed as protein degradation at 3 uM incubated for 24 to 72 hrs by immunoblot analysis; assay type: cell-based; settings: time 24-72 hrs
[8] = molecular target: T1, Protein cereblon/Son of sevenless homolog 1; test: PROTAC activity at CRBN/SOS1 in bafilomycin-pretreated human A549 cells assessed as protein degradation at 1 uM incubated for 24 hrs by immunoblot analysis; assay type: cell-based
[9] = molecular target: T1, Protein cereblon/Son of sevenless homolog 1; test: PROTAC activity at CRBN/SOS1 in lenalidomide-pretreated human A549 cells assessed as protein degradation at 1 uM incubated for 24 hrs by immunoblot analysis; assay type: cell-based
[10] = molecular target: GTPase KRas (Homo sapiens) (UniProt P01116); test: Inhibition of KRAS signalling in serum-starved human A549 cells assessed as decrease in ERK1/2 phosphorylation upto 10000 nM preincubated for 24 hrs followed by EGF stimulation for 1 hr by immunoblot analysis; assay type: cell-based; settings: time 25.0 hrs
[11] = molecular target: T1, Protein cereblon/Son of sevenless homolog 1; test: PROTAC activity at CRBN/SOS1 in human A549 cells assessed as protein degradation at 0.1 uM incubated for 24 hrs by immunoblot analysis relative to control; assay type: cell-based
[12] = molecular target: T1, Protein cereblon/Son of sevenless homolog 1; test: PROTAC activity at CRBN/SOS1 in human A549 cells assessed as half life of SOS1 at 3 uM by immunoblot analysis; assay type: cell-based
[13] = molecular target: T1, Protein cereblon/Son of sevenless homolog 1; test: PROTAC activity at CRBN/SOS1 in BI3406-pretreated human A549 cells assessed as protein degradation at 1 uM incubated for 24 hrs by immunoblot analysis; assay type: cell-based
[14] = molecular target: T1, Protein cereblon/Son of sevenless homolog 1; test: PROTAC activity at CRBN/SOS1 in human A549 cells assessed as protein degradation at 3 uM by immunoblot analysis; assay type: cell-based; settings: time <= 72.0 hrs, TDE = time-dependent effect
A549 [15] = test: Effect on SOS2 in human A549 cells upto 10000 nM incubated for 24 hrs by immunoblot analysis; assay type: functional, cell-based
[16] = molecular target: T1, Protein cereblon/Son of sevenless homolog 1; test: PROTAC activity at 6His-tagged human CRBN TBD domain (318 to 425 residues) expressed in Escherichia coli BL21(DE3)/GST-tagged recombinant human SOS1 (569 to 1049 residues) expressed in Escherichia coli BL21(DE3) protein-protein interaction assessed as ternary complex formation incubated for 1 hr by AlphaScreen assay
[17] = molecular target: T1, Protein cereblon/Son of sevenless homolog 1; test: PROTAC activity at CRBN/SOS1 in CHX-pretreated human A549 cells assessed as protein degradation at 3 uM incubated for 12 hrs by immunoblot analysis; assay type: cell-based
[18] = molecular target: T1, Protein cereblon/Son of sevenless homolog 1; test: PROTAC activity at CRBN/SOS1 in human A549 cells assessed as protein degradation upto 10000 nM incubated for 24 hrs by immunoblot analysis relative to control; assay type: cell-based
[19] = molecular target: T1, Protein cereblon/Son of sevenless homolog 1; test: PROTAC activity at CRBN/SOS1 in human A549 cells assessed as protein degradation at 10 uM incubated for 24 hrs by immunoblot analysis relative to control; assay type: cell-based

COc1cc2nc(C)nc(N[C@H](C)c3cc(N)cc(C(F)(F)F)c3)c2cc1O[C@H]1CCN(C(=O)CCCCCCCC(=O)Nc2cccc3c2CN(C2CCC(=O)NC2=O)C3=O)C1 (stereo partly specified)
DC50 [1]: 209 nM
Activity ([1]; dose <= 10000.0 µM): Dose-Dependent Effect
Activity [2]: inactive
Activity [3]: inactive
DC50 [4]: 540 nM
DC50 [5]: 354 nM
inhibition (MIA PaCa-2): Active
Activity (A549 [6]): inactive
Activity [7]: Active
Activity [8]: Active
Activity [9]: inactive
inhibition [10]: Active
Activity [11]: 68%
T1/2 [12]: 22.5 h
Activity [13]: inactive
Activity [14]: Tde
Activity (A549 [15]): inactive
Activity [16]: Active
Activity [17]: Active
Emax [18]: > 80%
Activity [19]: 69%
